# Measured values reported in US20200390755A1, “COMPOUND FOR TREATING NERVOUS SYSTEM DISEASES AND USE THEREOF” (SHAANXI MICOT TECHNOLOGY CO., LTD., priority 2018, published 2020).
# Experiments:
# N171-82Q HD mice = assay: Immunohistochemical analysis of mHtt protein aggregates in neurocortex (EM48); type: in vivo, mouse; details: 5 mg/kg/d until 25 weeks, six visual fields, n = 3
# Description: 7-week-old N171-82Q HD male mice were paired with female B6C3F1/J hybrid mice to obtain newborn mice. From 21 days of age, male mice were housed in separate cages. 0.5 cm of mouse tail tissue was removed to extract DNA to determine the genotype of the mouse, such that N171-82Q HD mice and WT mice needed for the experiment were obtained. The mice were randomly divided into WT Vehicle group (normal mice), WT test compound group (administration group of normal mice, 5 mg/kg/d, n=10), HD Vehicle group (blank group of HD mice, n=15), HD test compound group (administration groups 1-5 of HD mice, 5 mg/kg/d, n=10). The test compound was suspended in 1% CMC-Na solution and administered by intragastric administration until the end of the study. The weights of the mice were measured every week. Behavioral tests were performed at 12 weeks, 18 weeks, and 24 weeks of age to investigate motor function. At 20 weeks, 3 samples of tissue from each group were used for western blotting and immunohistochemistry. At 24 weeks, MRI scans were performed. At the end of the study, the effect of the test compound on the mortality of mice was evaluated.
# After the behavioral evaluation of the mice in each experimental group was completed and the administration continued until 25 weeks, 3 mice were taken from each group for […]. The right brain isolated from the mice was post-fixed in 4% paraformaldehyde for 24 h. The post-fixed brain tissue was put into 30% sucrose solution to allow it to sink to the bottom, and then brain slices with a thickness of 35 m were cut along the crown with a freezing microtome and placed in DPBS for storage. The stored brain slices were rinsed once with PBS, and blocked with 1 mL goat serum+9 mL PBS+1% TritonX-100 at room temperature on a shaker for 2˜3 h. After blocking, the brain slices were rinsed for 3 times with PBS, 5 min each time. Brain slices were taken out with a small brush and placed in a 24-well plate with primary antibody (anti-Huntingtin, clone mEM48, 1:25, mouse, prepared with blocking solution) for overnight incubation on a shaker in cold room at […]. After washing with PBS, brain slices were placed in a 24-well plate with secondary antibody (555, anti-mouse) for washing, and incubated on a shaker at room temperature for 2 h. After washing with PBS, brain slices was placed in a 24-well plate containing 800 μL DAPI (prepared with PBS, 1:10000) for staining on a shaker at room temperature for 10 min. The brain slices were taken out and placed in a 24-well plate containing 800 μL of PBS for washing on a shaker at room temperature for 10 min. The slide was placed flat on the experimental table with the front side facing upwards, and PBS was added dropwise on the slide to expand the brain slice in PBS. After drying, the mHtt protein was immunofluorescently stained with EM48 antibody (anti-Huntingtin) and photographed for observation.
# After immunofluorescence staining of brain tissue, cells with mHtt protein aggregation in six visual fields in the right neurocortex were counted, and the average value was taken for analysis and statistics. A representative image of a neurocortex immunostained with the EM48 antibody for test compound example 1 is shown in FIG. 5, in which the scale bars are 50 μm, and the light-colored dots are cells with mHtt protein aggregation.
# [1] = tested on: rats with permanent cerebral ischemia; assay: Cerebral infarction volume by TTC staining in rats with permanent cerebral ischemia; type: in vivo, SD rats; details: 20 mg/kg by gavage, after 7 days of ischemia
# Description: SD rats, male, about 220-250 g, were provided by the Experimental Animal Center of Medical College of Xi'an Jiaotong University. Rats were randomly divided into groups of 14 animals/group. The experiment included a sham group, a model group, a positive control Edaravone group and test compound groups 1-5.12 hours before the operation, the rats were fasted and were free to drink water, and then used for the modeling method of middle cerebral artery occlusion with thread plug. The rats were fixed on a wooden board after anesthesia, the common carotid artery was ligated proximally, the external carotid artery was ligated distally, and the main internal carotid artery into skull was retained. A ligature line was reserved at the bifurcation of the internal carotid artery for temporarily clamping the distal end of the internal carotid artery using an arterial clip. A 3-0 nylon thread with a length of 5 cm and a spherical shape with a diameter of 0.3 mm at the tip was inserted into the common carotid artery through a small incision at the bifurcation. The arterial clamp was loosened, and the thread plug was slowly advanced to 18˜20 mm. When there was resistance, the progress of the thread was stopped. At this time, the nylon thread plug entered the middle artery and blocked the blood flow, and then the ischemic phase began. The skin was sutured. In the sham operation group, the same procedure was executed, except that no thread plug was inserted.
# Administering was performed at 0 h, 3 h, 6 h and 12 h after ischemia, and then administering was performed once a day for 7 consecutive days. The test compound was prepared into a 4 mg/mL solution with 1% CMC-Na solution and administered by gavage. The edaravone group received an intravenous dose of 0.078 mg/kg.
# 3) Percentage of cerebral infarction volume after 7 days of ischemia: TTC staining was used to observe the infarct area.
# The rats in each group were sacrificed by spinal dislocation […]. The brain tissue was quickly peeled off and placed in the refrigerator at −20° C. to freeze to an appropriate hardness to remove the olfactory bulb, cerebellum and low brain stem. Continuous coronary slices were performed at 1 mm intervals, to obtain a total of 5 slices. The slices were placed in 0.5% triphenyltetrazolium chloride (TTC) in phosphate buffer (pH=7.4) and incubated in a 37° C. incubator without light for 15 min, and then fixed in paraformaldehyde and observed (fixed time should be within 24 h). The normal brain tissue is rosy red, and infarcted brain tissue is pale. After taking the picture, the slice was scanned to save the image. The area of cerebral infarction and the total area of slices were calculated using Image J processing software.
# Cerebral infarction volume (%)=(volume of the contralateral hemisphere of the operation−volume of the uninfarcted portion of the hemisphere of the occlusion)/volume of the contralateral hemisphere of the operation×100%
# (2) Statistical analysis of data: SPSS18.0 statistical software was used for statistical analysis and the data of each group was expressed as the mean standard error (x±SEM). One-way ANOVA and multiple comparisons between groups were used to compare the averages of measurement data among multiple groups. Rank score test was used for behavioral grading data, and Kaplan-Meier method was used for mortality. P<0.05 was considered statistically significant.
SMILES,Average number of cells with mHtt protein aggregation (N171-82Q HD mice),Volume percentage of cerebral infarction [1] [%]
"CC1(C)CCN(c2ccc(-c3cc(=O)c4ccc(O)c(O)c4o3)cc2)CC1 [Example 4, 2-(4-(4,4-dimethylpiperidin-1-yl)phenyl)-7,8-dihydroxy-4H-chromen-4-one]",155.286 ± 9.567,21.33 ± 7.68
"CC1CC(C)CN(c2ccc(-c3cc(=O)c4ccc(O)c(O)c4o3)cc2)C1 (stereo not shown) [Example 5, 2-(4-(3,5-dimethylpiperidin-1-yl)phenyl)-7,8-dihydroxy-4H-chromen-4-one]",151.687 ± 8.365,20.50 ± 6.38
"O=c1cc(-c2ccc(N3CCCCC3)cc2)oc2c(O)c(O)ccc12 [Example 1, 7,8-dihydroxy-2-(4-(piperidin-1-yl)phenyl)-4H-chromen-4-one]",152.500 ± 7.920,19.58 ± 9.56
"CN(C)C1CCN(c2ccc(-c3cc(=O)c4ccc(O)c(O)c4o3)cc2)CC1 [Example 3, 2-(4-(4-(dimethylamino)piperidin-1-yl)phenyl)-7,8-dihydroxy-4H-chromen-4-one]",148.794 ± 10.157,20.93 ± 7.65
"COc1ccc2c(=O)cc(-c3ccc(N4CCCCC4)cc3)oc2c1OC [Example 2, 7,8-dimethoxy-2-(4-(piperidin-1-yl)phenyl)-4H-chromen-4-one]",158.449 ± 13.260,19.93 ± 8.89
